From ChEMBL document CHEMBL5625170, “Design, synthesis, and biological evaluation of novel penindolone derivatives as potential inhibitors of hemagglutinin-mediated membrane fusion” (Eur J Med Chem, 2023) come the findings set out here.

Series [1] has as its target Hemagglutinin (Influenza A virus (A/Puerto Rico/8/1934(H1N1)), UniProt P03452). Briefly: Binding affinity to Influenza A virus (A/Puerto Rico/8/34) Hemagglutinin by surface plasmon resonance (SPR) assay.
Series [2] in a line: Cytotoxicity against dog MDCK cells assessed as cell viability measured after 48 hrs by MTT assay. It is filed as toxicity, cell-based, Canis lupus familiaris.
Series [3] is described as follows: Selectivity index, ratio of CC50 for cytotoxicity against dog MDCK cells to IC50 for anti-viral activity against Influenza A virus (A/Puerto Rico/8/34 infected in MDCK cells. The series is classed as toxicity, cell-based. As to conditions: read-out: Selectivity Index.
The target of series [4] is Hemagglutinin (Influenza A virus (A/Puerto Rico/8/1934(H1N1))) (UniProt P03452). The experiment in a line: Blockade of Influenza A virus (A/Puerto Rico/8/34) Hemagglutinin-mediated membrane fusion in Vero cells expressing PR8 HA assessed as syncytium formation at pH 5 and measured at 20 uM measured after 2 hrs by polykaryon assay. The series is classed as cell-based.
Chain of Hemagglutinin (Influenza A virus (A/Puerto Rico/8/1934(H1N1))) (P03452 whole entry, the tested form may be a part): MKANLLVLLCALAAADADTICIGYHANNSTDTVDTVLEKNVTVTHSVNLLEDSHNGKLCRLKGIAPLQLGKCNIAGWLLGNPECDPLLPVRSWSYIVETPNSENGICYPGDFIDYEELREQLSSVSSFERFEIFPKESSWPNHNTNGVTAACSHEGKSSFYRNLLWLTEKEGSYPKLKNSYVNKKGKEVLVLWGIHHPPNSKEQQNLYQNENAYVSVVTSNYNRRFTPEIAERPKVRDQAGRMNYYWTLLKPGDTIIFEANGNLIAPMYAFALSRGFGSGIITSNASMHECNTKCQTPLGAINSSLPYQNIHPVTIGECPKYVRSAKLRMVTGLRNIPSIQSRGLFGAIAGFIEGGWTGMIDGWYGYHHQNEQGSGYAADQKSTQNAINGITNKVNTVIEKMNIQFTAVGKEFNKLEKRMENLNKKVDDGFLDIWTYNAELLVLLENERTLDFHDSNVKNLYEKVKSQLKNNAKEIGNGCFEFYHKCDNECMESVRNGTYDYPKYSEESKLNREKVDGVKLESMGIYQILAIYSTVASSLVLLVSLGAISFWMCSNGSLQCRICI
The target is the same in series [5]. The experiment in a line: Blockade of Influenza A virus (A/Puerto Rico/8/34) Hemagglutinin-mediated membrane fusion in Vero cells expressing PR8 HA assessed as syncytium formation at pH 5 at 5 to 20 uM by quantitative membrane fusion assay. Conditions: dose 5-20 µM. The series is classed as cell-based.
Series [6] has as its system Influenza A virus. Briefly: In vivo antiviral activity against Influenza A virus (A/Puerto Rico/8/34) infected in BALB/c mouse assessed as increase in mouse survival at 10 mg/kg, po once daily treated after 4 hrs of inoculation for 14 days relative to control. It is filed as functional. As to conditions: A/Puerto Rico/8/34, 336 h, time 14 day.
Series [7] in a line: Toxicity in BALB/c mouse infected with Influenza A virus (A/Puerto Rico/8/34) assessed as death at 10 mg/kg, po after 11 days. The series is classed as organism-based. Conditions: in vivo, 264 h, time 11 day.
The nature of series [8]: Toxicity in BALB/c mouse infected with Influenza A virus (A/Puerto Rico/8/34) assessed as decrease in body weight at 10 mg/kg, po upto 8 days. It is filed as organism-based. As to conditions: in vivo, 192 h, time < 8 day.
For series [9], the system named is Influenza A virus. The experiment in a line: In vivo antiviral activity against Influenza A virus (A/Puerto Rico/8/34) infected in BALB/c mouse assessed as intact columnar epithelia in bronchiole without inflammatory cell infiltration at 10 mg/kg, po once daily treated after 4 hrs of inoculation for 4 days relative to control by HE staining based histopathological analysis. It is filed as functional, organism-based.

Calls of active or inactive are those of the source. The rule behind the calls is not given here.

Chain of Hemagglutinin (Influenza A virus (A/Puerto Rico/8/1934(H1N1)), UniProt P03452) (P03452 whole entry): as the sequence (P03452 whole entry, the tested form may be a part) above

For the molecule `CCOC(=O)c1c(CSc2ccccc2)n(C)c2cc(Br)c(O)c(CN(C)C)c12` [UMIFENOVIR], binding in series [1] was put at a Kd of 51.4 µM.

On to `CC(=O)c1cc(C)c(O)c(Cc2[nH]c3ccccc3c2Cc2c(O)c(C)cc(C(C)=O)c2O)c1O`, for which, in [2], the CC50 at 48 h is above 300 µM. In addition, in series [3], the selectivity ratio was above 11.8. In addition, binding in series [1] was put at a Kd of 8.4 µM. Besides, the inhibition result in series [4] and in [5] was “Active” each time.

Regarding `COc1cc(-c2ccc3c(Cc4c(O)c(C)cc(C(C)=O)c4O)c(Cc4c(O)c(C)cc(C(C)=O)c4O)[nH]c3c2)cc(OC)c1OC`, the CC50 at 48 h in series [2] was above 300 µM. In series [3], the selectivity ratio was above 14.9.

As for `COc1ccc(-c2ccc3c(Cc4c(O)c(C)cc(C(C)=O)c4O)c(Cc4c(O)c(C)cc(C(C)=O)c4O)[nH]c3c2)cc1`, the CC50 at 48 h in [2] was above 300 µM. Moreover, the selectivity ratio in series [3] is above 34.5.

Turning to `COc1ccc2cc(-c3ccc4[nH]c(Cc5c(O)c(C)cc(C(C)=O)c5O)c(Cc5c(O)c(C)cc(C(C)=O)c5O)c4c3)ccc2c1`, the CC50 at 48 h in series [2] was above 300 µM. The selectivity ratio in series [3] is above 14.2.

As for `COc1ccc2[nH]c(Cc3c(O)c(C)cc(C(C)=O)c3O)c(Cc3c(O)c(C)cc(C(C)=O)c3O)c2c1`, the CC50 at 48 h in series [2] is above 300 µM. For the same molecule, in series [3], the selectivity ratio is above 18.9.

As to `CC(=O)c1cc(C)c(O)c(Cc2[nH]c3ccc(-c4ccc5c(c4)OCCO5)cc3c2Cc2c(O)c(C)cc(C(C)=O)c2O)c1O`, in series [2], the CC50 at 48 h was above 300 µM. For the same molecule, the selectivity ratio in series [3] is above 23.1.

For `CC(=O)c1cc(C)c(O)c(Cc2[nH]c3cc(-c4csc5ccccc45)ccc3c2Cc2c(O)c(C)cc(C(C)=O)c2O)c1O`, in [2], the CC50 at 48 h was above 300 µM. In addition, in series [3], the selectivity ratio is above 14.4.

`COc1ccc2cc(-c3ccc4c(Cc5c(O)c(C)cc(C(C)=O)c5O)c(Cc5c(O)c(C)cc(C(C)=O)c5O)[nH]c4c3)ccc2c1`: the CC50 at 48 h in series [2] is above 300 µM. Besides, the selectivity ratio in series [3] was above 12.9.

Turning to `CCOC(=O)C1=C[C@@H](OC(CC)CC)[C@H](NC(C)=O)[C@@H](N)C1` [OSELTAMIVIR], in [2], the CC50 at 48 h was above 300 µM. Further, the selectivity ratio in series [3] was above 26.3. In addition, in [6], the survival at 10 mg/kg came to 80%. In addition, the Activity result is given as “Non-Toxic” in series [7] and “Toxic” in series [8]. In addition, in [9], the result was Active.

With `CC(=O)c1cc(C)c(O)c(Cc2[nH]c3ccc(-c4ccccc4)cc3c2Cc2c(O)c(C)cc(C(C)=O)c2O)c1O`, the CC50 at 48 h in [2] is above 300 µM. In [3], the selectivity ratio is above 11.5.

Consider `CC(=O)c1cc(C)c(O)c(Cc2[nH]c3cc(-c4cc(C)cc(C)c4)ccc3c2Cc2c(O)c(C)cc(C(C)=O)c2O)c1O`, for which the CC50 at 48 h in series [2] was above 300 µM. In addition, the selectivity ratio in series [3] was above 29.7.
